Laboratory results taken from article PMC10522591, “Natural product P57 induces hypothermia through targeting pyridoxal kinase” (Nature Communications, 2023).
Residue numbers refer to the chain shown, from its start.

What was measured:
pyridoxal kinase (PDXK) [1] = biological target: T1, pyridoxal kinase (PDXK) (Homo sapiens, UniProt O00764); experiment: initial velocity kinetics, ATP varied at fixed PL; assay type: biochemical
T1 construct: wild-type full-length human PDXK, N-terminal His tag
T1 sequence (O00764 1-312): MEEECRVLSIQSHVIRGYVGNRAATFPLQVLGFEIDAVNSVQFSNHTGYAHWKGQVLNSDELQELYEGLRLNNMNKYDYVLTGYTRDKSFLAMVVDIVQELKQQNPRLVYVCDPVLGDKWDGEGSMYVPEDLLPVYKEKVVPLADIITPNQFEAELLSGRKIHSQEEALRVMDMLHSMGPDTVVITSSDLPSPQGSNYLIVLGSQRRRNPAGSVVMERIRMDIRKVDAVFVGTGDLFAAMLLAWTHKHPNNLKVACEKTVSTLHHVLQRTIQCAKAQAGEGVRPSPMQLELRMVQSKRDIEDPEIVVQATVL

pyridoxal kinase (PDXK) [2] = biological target: T2, pyridoxal kinase (PDXK) (Mus musculus, UniProt Q8K183); experiment: competition of P57-Bio ([…]) affinity pull-down by P57 ([…]), Western blot; assay type: cell-based
T2 construct: endogenous, mouse brain lysate
T2 sequence (Q8K183 1-312): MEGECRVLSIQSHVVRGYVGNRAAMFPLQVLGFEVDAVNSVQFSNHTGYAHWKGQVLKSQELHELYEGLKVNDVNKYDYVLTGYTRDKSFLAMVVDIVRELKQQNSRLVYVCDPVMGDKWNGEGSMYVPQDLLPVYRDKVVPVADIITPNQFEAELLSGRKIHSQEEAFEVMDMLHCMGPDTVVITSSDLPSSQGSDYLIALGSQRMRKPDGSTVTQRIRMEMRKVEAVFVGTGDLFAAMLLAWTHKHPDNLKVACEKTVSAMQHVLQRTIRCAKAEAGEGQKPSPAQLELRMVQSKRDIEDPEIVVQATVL

pyridoxal kinase (PDXK) [3] = biological target: T3, pyridoxal kinase (PDXK) (Homo sapiens, UniProt O00764, D235A); experiment: inhibition of purified mutant enzyme (Fig. S5g); assay type: biochemical
T3 construct: full-length human PDXK D235A, N-terminal His tag
T3 sequence (O00764 1-312 D235A): T1 sequence (O00764 1-312) with D235A

pyridoxal kinase (PDXK) [4] = biological target: T1, pyridoxal kinase (PDXK); experiment: SPR (Biacore T200); also MST Kd =[…], and enzyme inhibition with EC50 […]; assay type: binding

Structure (SMILES)	initial velocity kinetics, ATP varied at fixed PL (pyridoxal kinase (PDXK) [1])	competition of P57-Bio (2.0 μM) affinity pull-down by P57 (20.0 μM), Western blo (pyridoxal kinase (PDXK) [2])	inhibition of purified mutant enzyme (Fig. S5g) (pyridoxal kinase (PDXK) [3])	Kd (pyridoxal kinase (PDXK) [4])
Nc1ncnc2c1ncn2[C@@H]1O[C@H](COP(=O)(O)OP(=O)(O)OP(=O)(O)O)[C@@H](O)[C@H]1O [ATP]	PL concentration was fixed and the concentrations of ATP were varied showed that both Km and Vmax values decreased	–	–	–
C/C=C(\C)C(=O)O[C@@H]1C[C@H]2[C@@H](CC=C3C[C@@H](O[C@H]4C[C@H](OC)[C@H](O[C@H]5C[C@H](OC)[C@H](O[C@@H]6O[C@H](C)[C@@H](O)[C@H](OC)[C@H]6O)[C@@H](C)O5)[C@@H](C)O4)CC[C@@]32C)[C@@]2(O)CC[C@H](C(C)=O)[C@@]12C [P57]	–	immunoblotting showed GSTP1 and PDXK, but not neuromodulin, were sensitive to competition by excess P57	the D235A mutation can reduce the binding stability to a certain extent, and partly reducing the inhibitory activity	3.5 µM
